Laboratory results taken from ChEMBL document CHEMBL5335810, “1,3-Disubstituted-1,2,4-triazin-6-ones with potent activity against androgen receptor-dependent prostate cancer cells” (Bioorg Med Chem, 2024).
pIC50: −log10 of the molar value. Each block holds one compound with its values, some of them ahead of it. Activity calls are given as the source filed them. The rule behind the calls is not given here.

Tests used:
CWR22R [1] = assay: Inhibition of cell viability in ARV7-positive human 22Rv1 cells by Steady-Glo luciferase assay; format: functional, cell-based
PC-3 = assay: Inhibition of cell viability in AR-independent human PC-3 cells by Steady-Glo luciferase assay; format: functional, cell-based
[2] = Drug uptake in C57BL6 mouse plasma at 25 mg/kg, po via gavage measured for 4 hrs by LC-MS/MS analysis; format: ADME, organism-based; details: in vivo
[3] = C0 in Sprague-Dawley rat at 1.8 mg/kg, iv measured for 24 hrs by LC-MS/MS analysis; format: ADME, organism-based; details: in vivo
[4] = Elimination rate constant in Sprague-Dawley rat at 1.8 mg/kg, iv measured for 24 hrs by LC-MS/MS analysis; format: ADME, organism-based; details: in vivo
[5] = Half life in Sprague-Dawley rat at 1.8 mg/kg, iv measured for 24 hrs by LC-MS/MS analysis; format: ADME, organism-based; details: in vivo
[6] = MRT (0 to t) in Sprague-Dawley rat at 1.8 mg/kg, iv measured for 24 hrs by LC-MS/MS analysis; format: ADME, organism-based; details: in vivo
[7] = MRT (0 to infinity) in Sprague-Dawley rat at 1.8 mg/kg, iv measured for 24 hrs by LC-MS/MS analysis; format: ADME, organism-based; details: in vivo
[8] = AUC (0 to t) in Sprague-Dawley rat at 1.8 mg/kg, iv measured for 24 hrs by LC-MS/MS analysis; format: ADME, organism-based; set-up: time 24 hrs, dose 1.8 mg/kg, route iv; details: in vivo
[9] = AUC (0 to infinity) in Sprague-Dawley rat at 1.8 mg/kg, iv measured for 24 hrs by LC-MS/MS analysis; format: ADME, organism-based; set-up: dose 1.8 mg/kg, time 24 hrs, route iv; details: in vivo
[10] = Clearance in Sprague-Dawley rat at 1.8 mg/kg, iv measured for 24 hrs by LC-MS/MS analysis; format: ADME, organism-based; details: in vivo
[11] = Volume of distribution at steady state in Sprague-Dawley rat at 1.8 mg/kg, iv measured for 24 hrs by LC-MS/MS analysis; format: ADME, organism-based; details: in vivo, read-out: Vdss
[12] = Elimination rate constant in Sprague-Dawley rat at 25 mg/kg, IG measured for 24 hrs by LC-MS/MS analysis; format: ADME, organism-based; details: in vivo, po
[13] = Half life in Sprague-Dawley rat at 25 mg/kg, IG measured for 24 hrs by LC-MS/MS analysis; format: ADME, organism-based; details: in vivo, po
[14] = Tmax in Sprague-Dawley rat at 25 mg/kg, IG measured for 24 hrs by LC-MS/MS analysis; format: ADME, organism-based; details: in vivo, po
[15] = Cmax in Sprague-Dawley rat at 25 mg/kg, IG measured for 24 hrs by LC-MS/MS analysis; format: ADME, organism-based; set-up: dose 25 mg/kg, time 24 hrs, route ig; details: in vivo, po
[16] = MRT (0 to t) in Sprague-Dawley rat at 25 mg/kg, IG measured for 24 hrs by LC-MS/MS analysis; format: ADME, organism-based; details: in vivo, po
[17] = MRT (0 to infinity) in Sprague-Dawley rat at 25 mg/kg, IG measured for 24 hrs by LC-MS/MS analysis; format: ADME, organism-based; details: in vivo, po
[18] = AUC (0 to t) in Sprague-Dawley rat at 25 mg/kg, IG measured for 24 hrs by LC-MS/MS analysis; format: ADME, organism-based; set-up: dose 25 mg/kg, time 24 hrs, route ig; details: in vivo, po
[19] = AUC (0 to infinity) in Sprague-Dawley rat at 25 mg/kg, IG measured for 24 hrs by LC-MS/MS analysis; format: ADME, organism-based; set-up: time 24 hrs, dose 25 mg/kg, route ig; details: in vivo, po
[20] = Oral bioavailability in Sprague-Dawley rat at 25 mg/kg measured for 24 hrs by LC-MS/MS analysis; format: ADME, organism-based; details: in vivo
[21] = target: T1, Androgen receptor (Homo sapiens) (UniProt P10275); assay: Inhibition of androgen receptor transfected in human HEK293T cells incubated for 24 to 72 hrs by Western blot analysis; format: cell-based; details: dose 0.5-1 µM, time 24-72 hrs
T1 sequence (whole entry): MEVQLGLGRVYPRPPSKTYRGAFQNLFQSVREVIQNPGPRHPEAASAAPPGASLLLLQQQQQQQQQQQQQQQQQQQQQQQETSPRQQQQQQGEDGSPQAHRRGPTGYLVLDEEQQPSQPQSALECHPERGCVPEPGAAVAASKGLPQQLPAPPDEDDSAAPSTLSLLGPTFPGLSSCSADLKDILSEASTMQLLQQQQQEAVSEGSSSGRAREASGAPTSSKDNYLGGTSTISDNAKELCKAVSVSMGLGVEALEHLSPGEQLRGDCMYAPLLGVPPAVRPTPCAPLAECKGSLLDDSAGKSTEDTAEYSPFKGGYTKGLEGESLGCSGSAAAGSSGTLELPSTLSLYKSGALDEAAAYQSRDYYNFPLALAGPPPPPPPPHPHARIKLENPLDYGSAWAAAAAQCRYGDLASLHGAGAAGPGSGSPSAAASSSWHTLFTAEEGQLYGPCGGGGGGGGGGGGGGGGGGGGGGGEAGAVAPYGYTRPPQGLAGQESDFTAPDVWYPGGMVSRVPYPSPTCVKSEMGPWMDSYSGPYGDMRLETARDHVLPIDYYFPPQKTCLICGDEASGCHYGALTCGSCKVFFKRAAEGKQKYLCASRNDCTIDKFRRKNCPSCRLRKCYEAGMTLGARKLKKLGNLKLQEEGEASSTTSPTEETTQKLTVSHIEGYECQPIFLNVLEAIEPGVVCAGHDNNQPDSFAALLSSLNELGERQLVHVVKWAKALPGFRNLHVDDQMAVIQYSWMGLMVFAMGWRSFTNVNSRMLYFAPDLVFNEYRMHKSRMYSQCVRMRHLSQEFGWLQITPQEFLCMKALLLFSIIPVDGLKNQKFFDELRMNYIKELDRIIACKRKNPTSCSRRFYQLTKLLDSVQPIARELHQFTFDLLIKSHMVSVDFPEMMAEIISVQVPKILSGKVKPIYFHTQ

[22] = target: T1, Androgen receptor (Homo sapiens); assay: Inhibition of androgen receptor transfected in human HEK293T cells at 0.5 to 1 uM by Western blot analysis; format: cell-based; details: dose 0.5-1 µM, time 24-72 hrs, TDE = time-dependent effect
HEK-293T = assay: Downregulation of AR-v1 expression transfected in human HEK293T cells at 0.5 to 1 uM incubated for 24 to 72 hrs by Western blot analysis; format: functional, cell-based; details: dose 0.5-1 µM, time 24-72 hrs
LNCaP = assay: Inhibition of cell viability in AR-dependent human LNCaP cells by Steady-Glo luciferase assay; format: functional, cell-based
LNCaP C4-2B = assay: Inhibition of cell viability in AR-dependent human LNCaP C4-2B cells by Steady-Glo luciferase assay; format: functional, cell-based
DU-145 = assay: Inhibition of cell viability in AR-independent human DU-145 cells by Steady-Glo luciferase assay; format: functional, cell-based
[23] = Inhibition of cell viability in human adipose stromal cells by CCK8 assay; format: toxicity, cell-based
[24] = target: T1, Androgen receptor (Homo sapiens); assay: Inhibition of androgen receptor in human 22Rv1 cells assessed as decrease in HGF mRNA level at 1 uM incubated for 36 hrs by RNA sequencing analysis; format: cell-based
CWR22R [25] = assay: Antitumor activity against human 22Rv1 cells xenografted in SCID C.B17 mouse assessed as tumor growth inhibition by measuring tumor volume at 50 mg/kg/day, IG measured for 21 days by caliper method; format: functional, organism-based; details: time 21.0 day
CWR22R [26] = assay: Antitumor activity against human 22Rv1 cells xenografted in SCID C.B17 mouse assessed as tumor growth inhibition by measuring tumor weight at 50 mg/kg/day, IG measured for 21 days by caliper method; format: functional, organism-based; details: time 21.0 day
[27] = Toxicity in SCID C.B17 mouse xenografted with human 22Rv1 cells assessed as body weight loss at 50 mg/kg/day, IG measured for 21 days; format: organism-based, CWR22R; details: in vivo, po, 504 h, time 21 day
[28] = Distribution coefficient, logD of compound by chromatography; format: physicochemical; details: octanol/water
[29] = Metabolic stability in mouse liver microsomes assessed as half life; format: ADME, Microsome
[30] = Metabolic stability in mouse liver microsomes assessed as intrinsic clearance measured per mg protein; format: ADME, Microsome; details: read-out: CLH

- pIC50 (PC-3): < 5.00
SMILES: O=c1cnc(-c2ccccc2)nn1-c1ccccc1
- pIC50 (CWR22R [1]): 5.66

- pIC50 (PC-3): 4.49
SMILES: CC(C)n1nc(-c2ccccc2)ncc1=O
- pIC50 (CWR22R [1]): 6.04

- pIC50 (PC-3): 5.67
- Drug uptake [2]: Not Active
SMILES: O=c1cnc(Cc2ccccc2)nn1Cc1ccc(Cl)c(Cl)c1
- pIC50 (CWR22R [1]): 6.70

- pIC50 (PC-3): 5.83
- Drug uptake [2]: Active
- C0 at 24 h [3]: 12600 ng/mL
- k el at 24 h [4]: 2.5e-05 s⁻¹
- half-life [5]: 8.02 h
- MRT last at 24 h [6]: 5.05 h
- MRT inf [7]: 7.65 h
- AUC(0-t) at 24 h [8]: 14300 ng·h/mL
- AUC(0-inf) [9]: 15700 ng·h/mL
- clearance [10]: 2.02 mL/min/kg
- Vd [11]: 0.87 L/kg
- k el at 24 h [12]: 4.17e-05 s⁻¹
- half-life [13]: 4.59 h
- Tmax [14]: 4 h
- Cmax [15]: 1910 ng/mL
- MRT last at 24 h [16]: 8.4 h
- MRT inf [17]: 9.27 h
- AUC(0-t) at 24 h [18]: 26500 ng·h/mL
- AUC(0-inf) [19]: 27500 ng·h/mL
- bioavailability [20]: 12.6%
- inhibition [21]: Dose-Dependent Effect
- inhibition [22]: Tde
- pIC50 (LNCaP): 6.77
- pIC50 (LNCaP C4-2B): 6.49
- pIC50 (DU-145): 5.73
- inhibition [24]: Active
SMILES: O=c1cnc(Cc2ccccc2)nn1Cc1ccc(Cl)cc1Cl
- pIC50 (CWR22R [1]): 6.74
- Activity (HEK-293T): inactive
- pIC50 [23]: 5.48
- TGI (CWR22R [25]): Active
- TGI (CWR22R [26]): Active
- Activity [27]: Non-Toxic

- pIC50 (PC-3): 5.49
- Drug uptake [2]: Not Active
SMILES: O=c1cnc(-c2ccccc2)nn1Cc1ccc(Cl)nc1
- pIC50 (CWR22R [1]): 7.05

- pIC50 (PC-3): < 5.00
SMILES: COc1ccc(Cn2nc(-c3cccc(OC)c3)ncc2=O)cc1
- pIC50 (CWR22R [1]): 5.51

- pIC50 (PC-3): 4.37
SMILES: N#CCCCn1nc(-c2ccccc2)ncc1=O
- pIC50 (CWR22R [1]): 5.52

- pIC50 (PC-3): 4.97
SMILES: CC(C)CCn1nc(-c2ccccc2)ncc1=O
- pIC50 (CWR22R [1]): 6.19

- pIC50 (PC-3): 4.93
SMILES: O=c1cnc(-c2cccc(Br)c2)nn1Cc1cccc(Cl)c1
- pIC50 (CWR22R [1]): 5.49

Second part, the compound before the results:

SMILES: O=c1cnc(-c2cccc(Cl)c2)nn1Cc1cccc(Cl)c1
- pIC50 (CWR22R [1]): 5.58
- pIC50 (PC-3): 4.94

SMILES: O=c1cnc(-c2ccccc2)nn1Cc1ccccc1Cl
- pIC50 (CWR22R [1]): 6.57
- pIC50 (PC-3): 5.59
- chromatographic logD [28]: 4.3
- half-life [29]: 0.167 h
- microsomal CLint [30]: 181 µL/min/mg

SMILES: O=c1cnc(Cc2ccccc2)nn1Cc1cccc(C(F)(F)F)c1
- pIC50 (CWR22R [1]): 6.89
- pIC50 (PC-3): 5.60
- Drug uptake [2]: Not Active

SMILES: O=c1cnc(-c2ccccc2)nn1C1CCCC1
- pIC50 (CWR22R [1]): 6.31
- pIC50 (PC-3): 5.00
- chromatographic logD [28]: 3.8
- half-life [29]: 0.1 h
- microsomal CLint [30]: 296 µL/min/mg

SMILES: COc1cccc(-c2ncc(=O)n(Cc3ccc(Cl)c(Cl)c3)n2)c1
- pIC50 (CWR22R [1]): 5.48
- pIC50 (PC-3): < 5.00

SMILES: O=c1cnc(Cc2ccccc2)nn1CC1CCCCC1
- pIC50 (CWR22R [1]): 5.49
- pIC50 (PC-3): 5.53

SMILES: O=c1cnc(-c2ccccc2)nn1Cc1ccc(Cl)cc1
- pIC50 (CWR22R [1]): 6.22
- pIC50 (PC-3): 4.96
- Drug uptake [2]: Not Active

SMILES: O=c1cnc(Cc2ccccc2)nn1Cc1ccccc1
- pIC50 (CWR22R [1]): 6.13
- pIC50 (PC-3): 5.01

SMILES: O=c1cnc(-c2ccccc2)nn1Cc1cccc(C(F)(F)F)c1
- pIC50 (CWR22R [1]): 6.66
- pIC50 (PC-3): 5.28
- Drug uptake [2]: Not Active

SMILES: O=c1cnc(-c2ccccc2)nn1-c1ccc(Cl)cc1
- pIC50 (CWR22R [1]): 5.85
- pIC50 (PC-3): 5.48

SMILES: COc1cccc(-c2ncc(=O)n(Cc3ccc(Cl)cc3Cl)n2)c1
- pIC50 (CWR22R [1]): 6.82
- pIC50 (PC-3): 6.37

SMILES: Cc1nc(Cn2nc(-c3ccccc3)ncc2=O)cs1
- pIC50 (CWR22R [1]): 6.16
- pIC50 (PC-3): 5.36
- Drug uptake [2]: Not Active

SMILES: O=c1cnc(Cc2ccccc2)nn1CC1CC1
- pIC50 (CWR22R [1]): 6.41
- pIC50 (PC-3): 6.22
